molecular target: Tie-2 (Homo sapiens, UniProt Q02763); test: Tie-2 tyrosine kinase inhibition (ATP consumption by luciferase/luciferin chemiluminescence or 33P-ATP incorporation into pEY substrate); format: biochemical; conditions: human enzyme Tie-2; inhibition given as class symbol
Protocol: Tyrosine kinase activity is determined by 1) measurement of kinase-dependent ATP consumption by in the presence of a generic substrate such as polyglutamine, tyrosin (pEY), by luciferase/luciferin-mediated chemiluminescence or; 2) incorporation of radioactive phosphate derived from ^33P-ATP into a generic substrate which has been adsorbed onto the well surface of polystyrene microtiter plates. Phosphorylated substrate products are quantified by scintillation spectrometry.
Inhibition is indicated as IC50 with following key: A=IC50 less than 50 nM, B=IC50 greater than 50 nM, but less than or equal to 1000 nM, C=IC50 greater than 1000 nM, but less than 10,000 nM, and D=IC50 10,000 nM or greater. The abbreviation for human enzyme, Tie-2, is defined as tyrosine kinase with immunoglobulin and EGF repeats.

Tie-2, sequence (Q02763 23-1124): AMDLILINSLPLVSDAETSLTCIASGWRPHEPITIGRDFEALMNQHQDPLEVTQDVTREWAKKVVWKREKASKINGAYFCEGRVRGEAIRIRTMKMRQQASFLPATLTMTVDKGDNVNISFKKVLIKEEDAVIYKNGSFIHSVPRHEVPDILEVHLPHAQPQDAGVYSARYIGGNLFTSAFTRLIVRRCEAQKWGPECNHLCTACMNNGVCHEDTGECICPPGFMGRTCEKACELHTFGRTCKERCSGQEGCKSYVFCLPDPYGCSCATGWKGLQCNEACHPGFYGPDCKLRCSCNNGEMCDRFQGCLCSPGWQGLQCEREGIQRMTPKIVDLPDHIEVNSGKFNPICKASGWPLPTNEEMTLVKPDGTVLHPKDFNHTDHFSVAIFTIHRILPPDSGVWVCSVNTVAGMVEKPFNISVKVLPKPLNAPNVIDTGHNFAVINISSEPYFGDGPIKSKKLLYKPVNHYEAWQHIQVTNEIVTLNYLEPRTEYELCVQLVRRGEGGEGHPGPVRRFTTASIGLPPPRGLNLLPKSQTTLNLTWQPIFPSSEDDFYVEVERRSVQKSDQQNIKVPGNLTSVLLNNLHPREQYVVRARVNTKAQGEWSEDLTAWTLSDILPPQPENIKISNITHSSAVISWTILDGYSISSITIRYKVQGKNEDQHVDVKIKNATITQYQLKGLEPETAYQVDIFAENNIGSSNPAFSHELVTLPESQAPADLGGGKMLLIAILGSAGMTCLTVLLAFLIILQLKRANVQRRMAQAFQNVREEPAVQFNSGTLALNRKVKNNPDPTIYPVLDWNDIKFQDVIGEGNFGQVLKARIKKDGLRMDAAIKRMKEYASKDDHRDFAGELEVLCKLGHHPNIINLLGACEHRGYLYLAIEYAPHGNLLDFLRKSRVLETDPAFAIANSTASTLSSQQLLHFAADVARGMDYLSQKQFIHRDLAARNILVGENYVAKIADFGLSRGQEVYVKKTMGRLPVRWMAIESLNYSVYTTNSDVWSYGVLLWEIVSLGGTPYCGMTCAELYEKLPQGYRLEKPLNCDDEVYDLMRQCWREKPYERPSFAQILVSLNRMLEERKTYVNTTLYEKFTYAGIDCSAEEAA

SMILES | IC50
O[C@@H]1CCC[C@H]1Nc1nc(-c2ccccc2)nc2ccccc12 [Compound 28, (1R,2R)-2-[(2-phenylquinazolin-4-yl)amino]cyclopentanol] | ≥ 10 µM
OC[C@@H]1Cc2ccccc2N1c1nc(-c2ccncc2)nc2ccccc12 [Compound 40, [(2S)-1-(2-pyridin-4-ylquinazolin-4-yl)-2,3-dihydro-1H-indol-2-yl]methanol] | ≥ 10 µM
OC[C@@H](O)CNc1nc(-c2ccncc2)nc2ccccc12 [Compound 39, (2S)-3-[(2-pyridin-4-ylquinazolin-4-yl)amino]propane-1,2-diol] | ≥ 10 µM
OC[C@H](Cc1ccccc1)Nc1nc(-c2ccncc2)nc2ccccc12 [Compound 61, (2S)-3-phenyl-2-[(2-pyridin-4-ylquinazolin-4-yl)amino]propan-1-ol] | 1 to 10 µM
c1ccc2c(NCCN3CCOCC3)nc(-c3ccncc3)nc2c1 [Compound 10, N-(2-morpholin-4-ylethyl)-2-pyridin-4-ylquinazolin-4-amine] | ≥ 10 µM
Oc1cc2ccccc2cc1Nc1nc(-c2ccncc2)nc2ccccc12 [Compound 24, 3-[(2-pyridin-4-ylquinazolin-4-yl)amino]naphthalen-2-ol] | 1 to 10 µM
c1ccc(Nc2ccc(Nc3nc(-c4ccncc4)nc4ccccc34)cc2)cc1 [Compound 23, N-phenyl-N′-(2-pyridin-4-ylquinazolin-4-yl)benzene-1,4-diamine] | ≥ 10 µM
OC[C@H]1C[C@@H](Nc2nc(-c3ccccc3)nc3ccccc23)[C@H](O)[C@@H]1O [Compound 30, (1S,2R,3R,5R)-3-(hydroxymethyl)-5-[(2-phenylquinazolin-4-yl)amino]cyclopentane-1,2-diol] | ≥ 10 µM
OCCCNc1nc(-c2ccncc2)nc2ccccc12 [Compound 6, 3-[(2-pyridin-4-ylquinazolin-4-yl)amino]propan-1-ol] | ≥ 10 µM
OC[C@@H](Nc1nc(-c2ccncc2)nc2ccccc12)c1ccccc1 [Compound 55, (2S)-2-phenyl-2-[(2-pyridin-4-ylquinazolin-4-yl)amino]ethanol] | 1 to 10 µM
COc1ncc(-c2nc(N[C@H]3c4ccccc4C[C@H]3O)c3ccccc3n2)c(OC)n1 [Compound 52, (1S,2R)-1-({2-[2,4-bis(methyloxy)pyrimidin-5-yl]quinazolin-4-yl}amino)-2,3-dihydro-1H-inden-2-ol] | ≥ 10 µM
c1ccc2c(NC3CCCC3)nc(-c3ccncc3)nc2c1 [Compound 3, N-cyclopentyl-2-pyridin-4-ylquinazolin-4-amine] | 1 to 10 µM
c1ccc2c(N3CCNCC3)nc(-c3ccncc3)nc2c1 [Compound 13, 4-piperazin-1-yl-2-pyridin-4-ylquinazoline] | ≥ 10 µM

Other lines, results leading:

IC50 | SMILES
1 to 10 µM | c1ccc2c(c1)CC[C@H](Nc1nc(-c3ccncc3)nc3ccccc13)C2 [Compound 15, 2-pyridin-4-yl-N-[(2S)-1,2,3,4-tetrahydronaphthalen-2-yl]quinazolin-4-amine]
< 0.05 µM | O[C@@H]1Cc2ccccc2[C@@H]1Nc1nc(-c2ccncc2)nc2ccc(Br)cc12 [Compound 45, (1S,2R)-1-[(6-bromo-2-pyridin-4-ylquinazolin-4-yl)amino]-2,3-dihydro-1H-inden-2-ol]
≥ 10 µM | O[C@H]1Cc2ccccc2[C@H]1Nc1nc(-c2ccccc2)nc2ccccc12 [Compound 27, (1R,2S)-1-[(2-phenylquinazolin-4-yl)amino]-2,3-dihydro-1H-inden-2-ol]
≥ 10 µM | Oc1ccc(-c2nc(N[C@H]3c4ccccc4C[C@H]3O)c3ccccc3n2)cn1 [Compound 64, 5-(4-{[(1S,2R)-2-hydroxy-2,3-dihydro-1H-inden-1-yl]amino}quinazolin-2-yl)pyridin-2-ol]
1 to 10 µM | c1ccc2c(c1)CC[C@H]2Cc1nc(-c2ccncc2)nc2ccccc12 [Compound 16, 4-[(1S)-2,3-dihydro-1H-inden-1-ylmethyl]-2-pyridin-4-ylquinazoline]
≥ 10 µM | O[C@H]1Cc2ccccc2[C@H]1Nc1nc(-c2ccccn2)nc2ccccc12 [Compound 38, (1R,2S)-1-[(2-pyridin-2-ylquinazolin-4-yl)amino]-2,3-dihydro-1H-inden-2-ol]
< 0.05 µM | O[C@@H]1Cc2ccccc2[C@@H]1Nc1nc(-c2ccncc2)nc2ccc(Cl)cc12 [Compound 31, (1S,2R)-1-[(6-chloro-2-pyridin-4-ylquinazolin-4-yl)amino]-2,3-dihydro-1H-inden-2-ol]
≥ 10 µM | CSc1nccc(-c2nc(N[C@H]3c4ccccc4C[C@H]3O)c3ccccc3n2)n1 [Compound 65, (1S,2R)-1-({2-[2-(methylthio)pyrimidin-4-yl]quinazolin-4-yl}amino)-2,3-dihydro-1H-inden-2-ol]
≥ 10 µM | O[C@@H]1Cc2ccccc2[C@@H]1Nc1nc(-c2ccccc2)nc2ccccc12 [Compound 26, (1S,2R)-1-[(2-phenylquinazolin-4-yl)amino]-2,3-dihydro-1H-inden-2-ol]

From patent US7763627B2, “Tie-2 modulators and methods of use” (Exelixis, Inc., priority 2003, dated 2010)
